Experimental data as given in ChEMBL document CHEMBL1142965, “(Aryloxyacetylamino)benzoic acid analogues: A new class of hypoxia-inducible factor-1 inhibitors” (J Med Chem, 2007).
Activity calls are given as the source filed them. The rule behind the calls is not given here.

Columns and labels:
[1] = target: Hypoxia inducible factors; HIF-1-alpha, HIF-2-alpha (Homo sapiens, UniProt Q16665+Q99814); assay: Inhibition of hypoxia induced HIF1 transcriptional activity in human Hep3B cells by cell-based HRE reporter assay; type: functional; conditions: hep 3b2
AGS = assay: cells; conditions: Homo sapiens
Description: Inhibition of hypoxia induced HIF1 transcriptional activity in human AGS cells by cell-based HRE reporter assay

[2] = Suppression of hypoxia-induced HIF1-alpha mRNA expression in human Hep3B cells; type: functional, cell-based; conditions: Hep 3B2
[3] = target: Hypoxia-inducible factor 1-alpha (Homo sapiens) (UniProt Q16665); assay: Inhibition of hypoxia-induced HIF1-alpha accumulation in human Hep3B cells; type: functional, cell-based; conditions: Hep 3B2
[4] = Suppression of hypoxia-induced VEGF mRNA expression in human Hep3B cells; type: functional, cell-based; conditions: Hep 3B2
[5] = Suppression of hypoxia-induced VEGF mRNA expression in human Hep3B cells at 10 uM; type: functional, cell-based; conditions: Hep 3B2
[6] = Suppression of hypoxia-induced EPO mRNA expression in human Hep3B cells at 10 uM; type: functional, cell-based; conditions: Hep 3B2
[7] = Suppression of hypoxia-induced EPO mRNA expression in human Hep3B cells; type: functional, cell-based; conditions: Hep 3B2

Sequence of Hypoxia-inducible factor 1-alpha (Homo sapiens) (Q16665 whole entry, looked up): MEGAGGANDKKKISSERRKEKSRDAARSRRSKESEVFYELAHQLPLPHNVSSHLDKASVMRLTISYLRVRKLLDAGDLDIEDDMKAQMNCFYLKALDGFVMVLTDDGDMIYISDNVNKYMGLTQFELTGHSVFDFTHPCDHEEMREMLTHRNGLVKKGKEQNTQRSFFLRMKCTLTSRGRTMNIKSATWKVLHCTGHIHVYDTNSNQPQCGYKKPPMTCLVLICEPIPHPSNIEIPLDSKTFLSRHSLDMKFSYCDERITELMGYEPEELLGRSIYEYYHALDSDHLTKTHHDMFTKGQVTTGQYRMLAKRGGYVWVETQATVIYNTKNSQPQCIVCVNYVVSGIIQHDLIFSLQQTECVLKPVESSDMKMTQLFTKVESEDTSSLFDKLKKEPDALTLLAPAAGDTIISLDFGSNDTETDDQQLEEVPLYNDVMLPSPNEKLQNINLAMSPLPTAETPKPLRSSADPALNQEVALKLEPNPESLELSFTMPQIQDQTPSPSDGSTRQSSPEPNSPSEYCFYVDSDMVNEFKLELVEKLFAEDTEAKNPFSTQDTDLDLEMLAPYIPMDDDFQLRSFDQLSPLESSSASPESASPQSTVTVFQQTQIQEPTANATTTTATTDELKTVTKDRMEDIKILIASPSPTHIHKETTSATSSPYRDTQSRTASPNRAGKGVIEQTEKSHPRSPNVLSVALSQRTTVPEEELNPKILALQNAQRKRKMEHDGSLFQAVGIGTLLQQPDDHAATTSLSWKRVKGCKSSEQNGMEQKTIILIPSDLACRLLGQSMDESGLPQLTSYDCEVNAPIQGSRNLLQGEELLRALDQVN

**Q.** What does the source list for O=C(COc1ccc(C23CC4CC(CC(C4)C2)C3)cc1)Nc1cccc(C(=O)Nc2ccc(Cl)cc2)c1?
**A.** IC50 [1]: > 30 µM; IC50 (AGS): 9.5 µM

**Q.** Which IC50 (AGS) does the source give for OCc1ccc(-c2nn(Cc3ccccc3)c3ccccc23)o1 here?
**A.** Its IC50 is 2 µM.

**Q.** Which results are given for Cc1ccc(-c2ccc(OCC(=O)Nc3cccc(C(=O)O)c3)cc2)cc1?
**A.** IC50 [1]: 23.2 µM; IC50 (AGS): > 30 µM

**Q.** What does the source list for COC(=O)c1cccc(NC(=O)COc2ccc(C34CC5CC(CC(C5)C3)C4)cc2)c1?
**A.** IC50 [1]: 9.9 µM; IC50 (AGS): 7.4 µM

**Q.** With O=C(COc1ccc(C23CC4CC(CC(C4)C2)C3)cc1)Nc1ccc(C(=O)O)cc1 as the molecule, how does the IC50 [1] read?
**A.** Its IC50 is over 30 µM.

**Q.** For CN(C)C(=O)c1ccc(O)c(NC(=O)COc2ccc(C34CC5CC(CC(C5)C3)C4)cc2)c1, which IC50 [1] is on record?
**A.** The IC50 was over 30 µM.

**Q.** And the IC50 (AGS)?
**A.** Its IC50 is over 30 µM.

**Q.** Which IC50 [1] does the source give for O=C(COc1ccccc1)Nc1cccc(C(=O)O)c1 here?
**A.** The IC50 was over 30 µM.

**Q.** And the IC50 (AGS)?
**A.** Its IC50 is over 30 µM.

**Q.** With O=C(COc1ccc(C23CC4CC(CC(C4)C2)C3)cc1)Nc1cccc(C(=O)Nc2ccc3ccccc3c2)c1 as the molecule, how does the IC50 [1] read?
**A.** Its IC50 is over 30 µM.

**Q.** What about the IC50 (AGS) of the same molecule?
**A.** The IC50 was over 30 µM.

**Q.** With NC(=O)c1ccc(O)c(NC(=O)COc2ccc(C34CC5CC(CC(C5)C3)C4)cc2)c1 as the molecule, how does the IC50 [1] read?
**A.** The IC50 was over 30 µM.

**Q.** What about the IC50 (AGS) of the same molecule?
**A.** The IC50 was 1.5 µM.

**Q.** With COC(=O)c1ccc(O)c(NC(=O)COc2ccc(C34CC5CC(CC(C5)C3)C4)cc2)c1 as the molecule, how does the Activity [2] read?
**A.** The Activity was “inactive”.

**Q.** What about the Activity [3] of the same molecule?
**A.** Its Activity is “Dose-dependent effect”.

**Q.** And the Activity [4]?
**A.** Its Activity is “Dose-dependent effect”.

**Q.** And the Activity [5]?
**A.** The Activity was “Active”.

**Q.** And the Activity [6]?
**A.** The Activity was “Active”.

**Q.** And the IC50 [1]?
**A.** The IC50 was 2.6 µM.

**Q.** And the Activity [7]?
**A.** Its Activity is “Dose-dependent effect”.

**Q.** And the IC50 (AGS)?
**A.** The IC50 was 0.7 µM.

**Q.** For O=C(COc1ccc(C23CC4CC(CC(C4)C2)C3)cc1)Nc1ccccc1C(=O)O, which IC50 [1] is on record?
**A.** Its IC50 is 10.5 µM.

**Q.** Which IC50 [1] does the source give for O=C(COc1ccc(C23CC4CC(CC(C4)C2)C3)cc1)Nc1cc(C(=O)NCc2ccco2)ccc1O here?
**A.** Its IC50 is 12.6 µM.

**Q.** And the IC50 (AGS)?
**A.** Its IC50 is 5.9 µM.

**Q.** With NC(=O)c1cccc(NC(=O)COc2ccc(C34CC5CC(CC(C5)C3)C4)cc2)c1 as the molecule, how does the Activity [3] read?
**A.** The Activity was “Dose-dependent effect”.

**Q.** And the IC50 [1]?
**A.** The IC50 was 4.3 µM.

**Q.** And the IC50 (AGS)?
**A.** Its IC50 is 1 µM.

**Q.** Which IC50 [1] does the source give for NC(=O)c1cccc(NC(=O)COc2ccc([N+](=O)[O-])cc2)c1 here?
**A.** Its IC50 is over 30 µM.

**Q.** What about the IC50 (AGS) of the same molecule?
**A.** The IC50 was over 30 µM.

**Q.** Which IC50 [1] does the source give for Cc1ccc(OCC(=O)Nc2cccc(C(=O)O)c2)cc1 here?
**A.** The IC50 was over 30 µM.

**Q.** What about the IC50 (AGS) of the same molecule?
**A.** Its IC50 is over 30 µM.

**Q.** For O=C(COc1ccc(Cl)cc1)Nc1cccc(C(=O)O)c1, which IC50 [1] is on record?
**A.** Its IC50 is over 30 µM.

**Q.** What about the IC50 (AGS) of the same molecule?
**A.** Its IC50 is 10 µM.

**Q.** Which IC50 [1] does the source give for O=C(COc1ccc(C23CC4CC(CC(C4)C2)C3)cc1)Nc1cccc(C(=O)NCc2ccco2)c1 here?
**A.** The IC50 was 14.08 µM.

**Q.** And the IC50 (AGS)?
**A.** Its IC50 is 2.1 µM.

**Q.** Which results are given for O=C(COc1ccc(C23CC4CC(CC(C4)C2)C3)cc1)Nc1cc(C(=O)O)ccc1O?
**A.** Activity [3]: Dose-dependent effect; IC50 [1]: 0.4 µM; IC50 (AGS): 0.35 µM

**Q.** Which IC50 [1] does the source give for CC(C)(C)c1ccc(OCC(=O)Nc2cccc(C(=O)O)c2)cc1 here?
**A.** The IC50 was 29 µM.

**Q.** What about the IC50 (AGS) of the same molecule?
**A.** The IC50 was 9.5 µM.

**Q.** For O=C(COc1ccc(C23CC4CC(CC(C4)C2)C3)cc1)Nc1cccc(C(=O)NCCc2ccncc2)c1, which IC50 [1] is on record?
**A.** Its IC50 is 8.2 µM.

**Q.** And the IC50 (AGS)?
**A.** Its IC50 is 3.1 µM.

**Q.** For CC(=O)c1ccc(OCC(=O)Nc2cccc(C(=O)O)c2)cc1, which IC50 [1] is on record?
**A.** The IC50 was over 30 µM.

**Q.** And the IC50 (AGS)?
**A.** The IC50 was over 30 µM.

**Q.** Which IC50 [1] does the source give for NC(=O)c1cccc(NC(=O)COc2ccccc2)c1 here?
**A.** Its IC50 is over 30 µM.

**Q.** And the IC50 (AGS)?
**A.** The IC50 was over 30 µM.

**Q.** What does the source list for CC(C)(C)c1ccc(OCC(=O)Nc2cccc(C(N)=O)c2)cc1?
**A.** IC50 [1]: > 30 µM; IC50 (AGS): > 30 µM

**Q.** For O=C(COc1ccc(-c2cccc([N+](=O)[O-])c2)cc1)Nc1cccc(C(=O)O)c1, which IC50 [1] is on record?
**A.** Its IC50 is over 30 µM.

**Q.** What about the IC50 (AGS) of the same molecule?
**A.** The IC50 was over 30 µM.

**Q.** Which results are given for O=C(COc1ccc(-c2cccs2)cc1)Nc1cccc(C(=O)O)c1?
**A.** IC50 [1]: > 30 µM; IC50 (AGS): > 30 µM

**Q.** With CN(C)CCNC(=O)c1ccc(O)c(NC(=O)COc2ccc(C34CC5CC(CC(C5)C3)C4)cc2)c1 as the molecule, how does the IC50 [1] read?
**A.** The IC50 was over 30 µM.

**Q.** What about the IC50 (AGS) of the same molecule?
**A.** Its IC50 is 3 µM.

**Q.** With O=C(COc1ccc(F)cc1)Nc1cccc(C(=O)O)c1 as the molecule, how does the IC50 [1] read?
**A.** The IC50 was over 30 µM.

**Q.** And the IC50 (AGS)?
**A.** Its IC50 is over 30 µM.

**Q.** With O=C(COc1ccc(Br)cc1)Nc1cccc(C(=O)O)c1 as the molecule, how does the IC50 [1] read?
**A.** Its IC50 is over 30 µM.

**Q.** And the IC50 (AGS)?
**A.** Its IC50 is 1.6 µM.

**Q.** Which Activity [2] does the source give for O=C(COc1ccc(C23CC4CC(CC(C4)C2)C3)cc1)Nc1cccc(C(=O)O)c1 here?
**A.** Its Activity is “inactive”.

**Q.** And the Activity [3]?
**A.** Its Activity is “Dose-dependent effect”.

**Q.** And the Activity [4]?
**A.** The Activity was “Dose-dependent effect”.

**Q.** What about the IC50 [1] of the same molecule?
**A.** The IC50 was 5 µM.

**Q.** And the Activity [7]?
**A.** The Activity was “Dose-dependent effect”.

**Q.** And the IC50 (AGS)?
**A.** The IC50 was 2.5 µM.

**Q.** For COc1cccc(-c2ccc(OCC(=O)Nc3cccc(C(=O)O)c3)cc2)c1, which IC50 [1] is on record?
**A.** The IC50 was over 30 µM.

**Q.** And the IC50 (AGS)?
**A.** Its IC50 is 35 µM.

**Q.** Which results are given for O=C(COc1ccc(I)cc1)Nc1cccc(C(=O)O)c1?
**A.** IC50 [1]: 7.2 µM; IC50 (AGS): 3.5 µM

**Q.** With Cc1ccc(OCC(=O)Nc2cccc(C(N)=O)c2)cc1 as the molecule, how does the IC50 [1] read?
**A.** Its IC50 is over 30 µM.

**Q.** What about the IC50 (AGS) of the same molecule?
**A.** The IC50 was over 30 µM.
